This is an account of results in US9944634B2, “Pyrazolopyridine derivatives as TTX-S blockers” (RaQualia Pharma Inc., priority 2012, dated 2018).

Structures are written as SMILES. Like-named read-outs stand apart in the source and are kept apart here. Bounds are passed on as bounds.

What all share (type): cell-based
One experiment deals with T1, human Nav1.3 (hSCN3A) (Homo sapiens, UniProt Q9NY46).
T1 construct: expressed in transfected cells; host or cells: HEK293 cells
Description: Electrophysiology assay (whole cell patch clamp), human Nav1.3. The following applies: dissociation constant for the inactivated state, HEK293 cells, read-out: activity (Ki) against Nav1.3. On the procedure:
(§1) Electrophysiology Assay for Nays
(§2) Whole cell patch clamp recording is used to assess the efficacy or selectivity of Na channel blocker on human Nav1.3 (hSCN3A) expressing HEK293 cells or human Nav1.7 (hSCN9A) expressing CHO cells. Human Nav1.3 expressing HEK293 cells are grown in growth media which contain: DMEM, 10% heat-inactivated FBS (Hyclone Laboratories Inc), 100 microgram/mL penicillin/100U/mL streptomycin, 150 microgram/mL Zeocin, and 3 microgram/mL Geneticin. Human Nav1.7 expressing CHO cells are grown in growth media which contain: HAMF-12, 9% heat-inactivated FBS (Hyclone Laboratories Inc), and 100 microgram/mL penicillin/100 U/mL streptomycin, and 100 microgram/mL hygromycin. […]
(§3) The normalized steady-state inactivation curve is constructed using 2 sec (for vehicle) or 60 sec (for drugs) conditioning pulse to different potentials followed immediately by the test pulse to −10 mV. […] The affinity of drugs to resting state of Na channels (Kresting or Kr) is assessed by 30 msec test pulse from a negative holding potential of -120 or −130 mV, where virtually all channels are in the resting state. Kr value is calculated by a conventional 1:1 binding model: Kresting(Kr)={[drug]Imax,drug/(Imax,control−Imax,drug)} [Math.2] • where Kresting(=Kr) is a dissociation constant for the resting state and [drug] is compound concentration. […]

In the next experiment the target is T2, human Nav1.5 channels (Homo sapiens, UniProt Q14524).
T2 construct: expressed in transfected cells; host or cells: HEK293 cells
T2 sequence (Q14524 whole entry): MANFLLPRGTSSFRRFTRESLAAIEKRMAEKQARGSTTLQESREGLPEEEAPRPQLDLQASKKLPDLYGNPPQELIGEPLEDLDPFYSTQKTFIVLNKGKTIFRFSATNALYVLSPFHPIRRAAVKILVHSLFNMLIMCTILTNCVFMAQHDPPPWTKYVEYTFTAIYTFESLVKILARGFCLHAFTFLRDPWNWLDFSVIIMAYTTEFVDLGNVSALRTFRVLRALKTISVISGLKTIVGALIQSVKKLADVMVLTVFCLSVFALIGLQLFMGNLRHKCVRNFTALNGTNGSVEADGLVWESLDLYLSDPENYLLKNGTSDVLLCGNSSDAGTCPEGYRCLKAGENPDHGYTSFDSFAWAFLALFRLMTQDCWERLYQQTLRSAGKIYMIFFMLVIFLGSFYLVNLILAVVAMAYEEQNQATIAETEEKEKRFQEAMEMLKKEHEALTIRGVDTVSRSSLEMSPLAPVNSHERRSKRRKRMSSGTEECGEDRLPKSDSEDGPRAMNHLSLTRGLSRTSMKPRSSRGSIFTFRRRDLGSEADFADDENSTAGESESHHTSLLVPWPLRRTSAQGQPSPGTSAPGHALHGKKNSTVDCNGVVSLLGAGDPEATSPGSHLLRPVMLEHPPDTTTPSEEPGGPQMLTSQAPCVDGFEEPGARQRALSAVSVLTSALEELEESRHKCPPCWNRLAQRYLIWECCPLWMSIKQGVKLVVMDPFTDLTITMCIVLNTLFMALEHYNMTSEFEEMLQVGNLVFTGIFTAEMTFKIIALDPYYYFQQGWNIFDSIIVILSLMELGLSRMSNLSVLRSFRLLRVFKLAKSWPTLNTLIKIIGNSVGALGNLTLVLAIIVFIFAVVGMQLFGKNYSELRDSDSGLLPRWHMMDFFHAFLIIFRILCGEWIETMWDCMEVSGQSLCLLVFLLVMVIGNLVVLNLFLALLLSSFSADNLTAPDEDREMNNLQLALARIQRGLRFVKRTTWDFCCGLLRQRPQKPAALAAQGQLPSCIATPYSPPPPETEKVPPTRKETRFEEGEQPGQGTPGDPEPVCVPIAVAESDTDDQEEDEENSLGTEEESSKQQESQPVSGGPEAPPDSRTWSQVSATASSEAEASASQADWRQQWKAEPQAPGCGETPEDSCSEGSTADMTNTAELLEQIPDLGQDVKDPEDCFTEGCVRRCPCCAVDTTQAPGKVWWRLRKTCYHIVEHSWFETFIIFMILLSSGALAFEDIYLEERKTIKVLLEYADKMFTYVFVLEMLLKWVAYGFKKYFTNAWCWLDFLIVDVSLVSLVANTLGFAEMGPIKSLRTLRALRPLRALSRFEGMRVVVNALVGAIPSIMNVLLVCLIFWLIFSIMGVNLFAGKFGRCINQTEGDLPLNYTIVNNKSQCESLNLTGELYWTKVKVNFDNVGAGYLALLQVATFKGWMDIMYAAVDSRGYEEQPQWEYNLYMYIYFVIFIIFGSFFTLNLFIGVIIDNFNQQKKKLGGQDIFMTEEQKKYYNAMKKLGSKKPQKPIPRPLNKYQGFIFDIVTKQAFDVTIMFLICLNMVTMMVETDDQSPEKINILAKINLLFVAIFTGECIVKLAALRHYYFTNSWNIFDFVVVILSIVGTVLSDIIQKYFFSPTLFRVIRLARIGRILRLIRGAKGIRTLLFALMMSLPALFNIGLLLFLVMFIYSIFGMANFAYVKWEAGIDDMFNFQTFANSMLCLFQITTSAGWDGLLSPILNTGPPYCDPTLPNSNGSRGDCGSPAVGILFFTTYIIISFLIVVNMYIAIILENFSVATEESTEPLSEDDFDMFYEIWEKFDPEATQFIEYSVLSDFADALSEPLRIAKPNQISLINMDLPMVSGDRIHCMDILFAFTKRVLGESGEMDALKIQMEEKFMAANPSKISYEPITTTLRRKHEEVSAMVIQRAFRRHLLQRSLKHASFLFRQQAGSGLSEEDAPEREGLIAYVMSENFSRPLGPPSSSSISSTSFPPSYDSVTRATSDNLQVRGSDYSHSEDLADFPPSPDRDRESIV
Description: FRET assay, human Nav1.5 channels. The following applies: read-out: activity against Nav1.5 (IC50). As for the experimental part: (§4) The inhibitory activities of compounds against voltage gated sodium channels are determined by methodology well known in the art.
(§5) The ability of the pyrazolopyridine derivatives of the formula (I) to inhibit the Nav1.3, Nav1.7 and Nav1.5 channels is measured by Fluorescence Resonance Energy Transfer (FRET) assay and electrophysiology assay described below.
(§6) This screen is used to determine the effects of compounds on human Nav1.3, human Nav1.7, and human Nav1.5 channels, utilising electrical field stimulation (EFS) system in 96-well plate format on FDSS (Hamamatsu Photonics) platform. The change of membrane potential is monitored with FRET dye pair, oxonol (DiSBAC2(3)) and coumarin (CC2-DMPE).
Each HEK293 cells expressing human Nav1.3 channels and HEK293 cells expressing human Nav1.5 channels are grown in T225 flasks, in a 5% CO2 humidified incubator to about 80% confluence. Media composition consists of Dulbecco's Modified Eagle Medium (high glucose), 10% FCS, 100 units/mL penicillin, 100 microgram/mL streptomycin and 500 microgram/mL Geneticine. […]
(§7) The data are analyzed and reported as normalized ratios of intensities measured at […]. […]
(§8) This analysis is performed using a computerized specific program designed for FDSS generated data. Fluorescence ratio values are plotted using XLfit to determine an IC50 value for each compound.

The target of the next experiment is T3, human Nav1.7 (hSCN9A) (Homo sapiens, UniProt Q15858).
T3 construct: expressed in transfected cells; host or cells: CHO cells
T3 sequence (Q15858 whole entry): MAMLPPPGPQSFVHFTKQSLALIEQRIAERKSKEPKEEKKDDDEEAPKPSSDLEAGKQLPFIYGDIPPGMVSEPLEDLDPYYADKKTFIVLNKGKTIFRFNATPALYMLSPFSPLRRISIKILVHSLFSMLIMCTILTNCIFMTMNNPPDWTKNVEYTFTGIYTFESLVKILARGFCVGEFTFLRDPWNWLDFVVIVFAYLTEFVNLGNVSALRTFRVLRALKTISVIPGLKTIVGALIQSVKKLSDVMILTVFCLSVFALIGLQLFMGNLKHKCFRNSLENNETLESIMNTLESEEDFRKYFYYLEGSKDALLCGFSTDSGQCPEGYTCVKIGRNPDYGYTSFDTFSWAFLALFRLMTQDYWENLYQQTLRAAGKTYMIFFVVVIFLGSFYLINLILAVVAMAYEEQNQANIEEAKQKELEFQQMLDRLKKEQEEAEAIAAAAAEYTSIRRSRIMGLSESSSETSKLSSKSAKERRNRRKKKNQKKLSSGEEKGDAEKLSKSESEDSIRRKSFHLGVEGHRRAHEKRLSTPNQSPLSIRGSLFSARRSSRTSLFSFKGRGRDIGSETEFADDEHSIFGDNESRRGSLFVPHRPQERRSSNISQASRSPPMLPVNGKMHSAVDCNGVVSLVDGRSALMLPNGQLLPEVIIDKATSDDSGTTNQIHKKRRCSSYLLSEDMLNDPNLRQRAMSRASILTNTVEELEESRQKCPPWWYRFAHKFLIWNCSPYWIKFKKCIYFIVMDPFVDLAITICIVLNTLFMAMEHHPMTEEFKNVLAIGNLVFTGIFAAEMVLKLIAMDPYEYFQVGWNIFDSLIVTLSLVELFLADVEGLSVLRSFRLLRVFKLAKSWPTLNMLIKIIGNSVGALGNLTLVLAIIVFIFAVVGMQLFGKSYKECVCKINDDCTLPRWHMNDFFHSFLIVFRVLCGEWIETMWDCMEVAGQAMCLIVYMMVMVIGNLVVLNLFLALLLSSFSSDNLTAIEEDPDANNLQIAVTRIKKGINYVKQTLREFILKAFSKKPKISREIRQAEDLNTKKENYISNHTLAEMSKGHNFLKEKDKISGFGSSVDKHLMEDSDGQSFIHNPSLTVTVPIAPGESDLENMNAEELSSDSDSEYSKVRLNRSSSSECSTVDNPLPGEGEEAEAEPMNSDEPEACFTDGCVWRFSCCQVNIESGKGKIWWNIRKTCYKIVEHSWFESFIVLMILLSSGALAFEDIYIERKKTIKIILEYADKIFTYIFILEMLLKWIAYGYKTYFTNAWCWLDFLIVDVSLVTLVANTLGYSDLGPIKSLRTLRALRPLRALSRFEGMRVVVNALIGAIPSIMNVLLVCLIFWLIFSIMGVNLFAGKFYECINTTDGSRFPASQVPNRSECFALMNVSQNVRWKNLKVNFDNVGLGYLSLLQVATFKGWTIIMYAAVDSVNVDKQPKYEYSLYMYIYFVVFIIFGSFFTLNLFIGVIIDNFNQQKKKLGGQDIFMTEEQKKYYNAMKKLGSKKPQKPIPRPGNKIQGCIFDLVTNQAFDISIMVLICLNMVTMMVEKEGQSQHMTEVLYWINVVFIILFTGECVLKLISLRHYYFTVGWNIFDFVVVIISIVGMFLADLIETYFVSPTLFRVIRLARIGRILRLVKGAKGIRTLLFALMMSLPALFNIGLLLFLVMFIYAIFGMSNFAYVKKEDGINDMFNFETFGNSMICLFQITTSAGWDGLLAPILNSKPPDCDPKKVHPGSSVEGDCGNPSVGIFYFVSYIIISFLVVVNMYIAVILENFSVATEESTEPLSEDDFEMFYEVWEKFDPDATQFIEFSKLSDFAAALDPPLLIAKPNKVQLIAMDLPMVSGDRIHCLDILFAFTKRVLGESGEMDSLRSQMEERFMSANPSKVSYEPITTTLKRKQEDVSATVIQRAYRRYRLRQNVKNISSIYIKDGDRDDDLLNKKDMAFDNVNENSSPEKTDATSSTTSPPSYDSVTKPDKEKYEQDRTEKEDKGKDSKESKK
Description: Electrophysiology assay (whole cell patch clamp), human Nav1.7. The following applies: dissociation constant for the inactivated state, CHO cells, read-out: activity (Ki) against Nav1.7. On the procedure: as §1, §2, §3
On the technique in general: In patch-clamp work, channel activity is measured electrically.

A further experiment addresses T4, human Nav1.7 channels (Homo sapiens, UniProt Q15858).
T4 construct: expressed in transfected cells; host or cells: CHO cells
Briefly: FRET assay, human Nav1.7 channels. As for the experimental part:
as §4, §5, §6
CHO cells expressing human Nav1.7 channels are grown in T225 flasks, in a 5% CO2 humidified incubator to about 80% confluence. Media composition consists of HAM/F12 with Glutamax I, 10% FCS, 100 units/mL penicillin and 100 microgram/mL hygromycin. […]
as §7, §8

T4 sequence (Q15858 whole entry): as above

For `Cc1cc(Cn2cc3c(NC(=O)C(C)(C)O)nccc3n2)cnc1OCC(F)(F)F` [Example 2, 2-hydroxy-2-methyl-N-(2-((5-methyl-6-(2,2,2-trifluoroethoxy)pyridin-3-yl)methyl)-2H-pyrazolo[4,3-c]pyridin-4-yl)propanamide], the results for the Ki at human Nav1.3 (hSCN3A) and on human Nav1.7 (hSCN9A) were 570 nM and 340 nM, respectively. Also, the IC50 at human Nav1.5 channels was more than 30000 nM; on human Nav1.7 channels (bound holds for Nav1.7 and/or Nav1.3, not stated which, read-out: IC50 against Nav1.7 and/or Nav1.3), less than 1000 nM; at human Nav1.7 channels (read-out: activity against Nav1.7 (IC50)) it was 380 nM.
